From patent US20170304286A1 (LAUNX BIOMEDICAL CO., LTD., priority 2014, published 2017)
Read-outs that look alike come from different tables or passages of the source.

Assays:
Type in all cases: cell-based
[1] = system: H1650 (lung adenocarcinoma); experiment: WST-1 cell viability, lung cancer cell line H1650; details: Homo sapiens
Protocol: (§1) The cell numbers were counted and reseed as 2×10^6 in culture plate/flask. Then, the culture medium were added to a volume of 10 ml, and the cells were cultured for 2-3 days. Then, the cells were suspended for loading into 96-well plates. The number of cells was 3000 and the volume of the culture medium was 100 μl each well.
(§2) Removing the original culture medium from 96-well plate. Then add 100 μl of commercially drug at a concentration of 10 μM per well. After 72 hours, add the diluted WST-1 reagent to the well with 100 μl/well, and the diluted WST-1 reagent was acquired from the dilution of 9:1 medium and WST-1 stock reagent. Finally, the total volume of each well was 200 μl/well. Culture the 96-well plate at 37° C. for 30 to 90 minutes. Detecting and calculate the survival rate of each cancer cells with an ELISA reader at OD450 nm.

[2] = system: TSGH; experiment: WST-1 cell viability, bladder cancer cell line TSGH; details: 72 h
Protocol: as §1, §2

[3] = system: 786-O (Renal adenocarcinoma); experiment: WST-1 cell viability, renal cancer cell line 786-O; details: Homo sapiens
Protocol: as §1, §2

[4] = system: PC-3; experiment: WST-1 cell viability, prostate cancer cell line PC-3; details: Homo sapiens
Protocol: as §1, §2

[5] = system: MCF7 (Mammary Gland, Adenocarcinoma); experiment: WST-1 cell viability, breast cancer cell line MCF7; details: Homo sapiens
Protocol: as §1, §2

[6] = system: MDA-MB-231 (Mammary Gland, Adenocarcinoma); experiment: WST-1 cell viability, breast cancer cell line MDA-MB-231; details: Homo sapiens
Protocol: as §1, §2

[7] = system: NIH-OVCAR-3; experiment: WST-1 cell viability, ovarian cancer cell line NIH-OVCAR-3; details: Homo sapiens
Protocol: as §1, §2

[8] = system: HepG2 (hepatocellular carcinoma); experiment: WST-1 cell viability, hepatic cancer cell line HepG2; details: Homo sapiens
Protocol: as §1, §2

[9] = system: Hep3B (hepatocellular carcinoma); experiment: WST-1 cell viability, hepatic cancer cell line Hep3B; details: Homo sapiens, 72 h
Protocol: as §1, §2

[10] = system: LoVo(Colorectal Adenocarcinoma); experiment: WST-1 cell viability, colorectal cancer cell line LoVo; details: Homo sapiens, 72 h
Protocol: as §1, §2

[11] = system: SAS (Tongue squamouscell carcinoma); experiment: WST-1 cell viability, tongue cancer cell line SAS; details: 72 h
Protocol: as §1, §2

[12] = system: U2OS; experiment: WST-1 cell viability, osteosarcoma cell line U2OS; details: Homo sapiens, 72 h
Protocol: as §1, §2

[13] = system: bladder cancer cells; experiment: Summary of cell viability, bladder cancer; details: 72 h, read-out: Inhibitory effect
Protocol: as §2

[14] = system: cervical cancer cells; experiment: Summary of cell viability, cervical cancer; details: 72 h, read-out: Inhibitory effect
Protocol: as §2

[15] = system: prostate cancer cells; experiment: Summary of cell viability, prostate cancer; details: 72 h, read-out: Inhibitory effect
Protocol: as §2

[16] = system: breast cancer cells; experiment: Summary of cell viability, breast cancer; details: 72 h, read-out: Inhibitory effect
Protocol: as §2

[17] = system: ovarian cancer cells; experiment: Summary of cell viability, ovarian cancer; details: 72 h, read-out: Inhibitory effect
Protocol: as §2

[18] = system: colorectal cancer cells; experiment: Summary of cell viability, colorectal cancer; details: 72 h, read-out: Inhibitory effect
Protocol: as §2

[19] = system: skin cancer cells; experiment: Summary of cell viability, skin cancer; details: 72 h, read-out: Inhibitory effect
Protocol: as §2

[20] = system: normal cells; experiment: Toxicity to normal cells (cell viability)
Excerpt: Subculture the different types of cancer cells. The cancer cells includes lung cancer, gastric cancer, hepatic cancer, colon cancer, skin cancer, cervical cancer, prostate cancer, bladder cancer, breast cancer, leukemia, pancreatic cancer, ovarian cancer, tongue cancer, osteosarcoma, and renal cancer. The normal cells used in the control group included kidney cells (HEK293), canine fibroblast cell line HFW, and human bronchial epithelial cell line BEAS-2B.
as §2

[21] = average of 4 tests, read-out: survival rate (inhibition effect), Average

## Fc1ccc([C@@H]2CCNC[C@H]2COc2ccc3c(c2)OCO3)cc1 [Paroxetine]
[1]; NCI-H1650, 72 h, H1650, average of 4 tests, read-out: survival rate (inhibition effect), Average
  viability at 10 µM: 56.9%
[1]; NCI-H1650, H1650, 72 h, run 1-10 min, read-out: survival rate (inhibition effect)
  viability at 10 µM: 66.4%
[1]; NCI-H1650, H1650, 72 h, run 2-20 min, read-out: survival rate (inhibition effect)
  viability at 10 µM: 31.6%
[1]; NCI-H1650, H1650, 72 h, run 3-20 min, read-out: survival rate (inhibition effect)
  viability at 10 µM: 58.2%
[1]; NCI-H1650, H1650, 72 h, run 4-20 min, read-out: survival rate (inhibition effect)
  viability at 10 µM: 71.3%
[2]; [21]
  viability at 10 µM: 38.4%
[2]; run 0510-10 min, read-out: survival rate (inhibition effect)
  viability at 10 µM: 37.1%
[2]; run 0512-10 min, read-out: survival rate (inhibition effect)
  viability at 10 µM: 37.4%
[2]; run 0515-10 min, read-out: survival rate (inhibition effect)
  viability at 10 µM: 36.8%
[2]; run 0517-10 min, read-out: survival rate (inhibition effect)
  viability at 10 µM: 42.2%
[3]; 786-0, 786-O, 72 h, run 0524-10 min, read-out: survival rate (inhibition effect)
  viability at 10 µM: 35.2%
[3]; 786-0, 786-O, 72 h, run 0526-10 min, read-out: survival rate (inhibition effect)
  viability at 10 µM: 24%
[3]; 786-0, 786-O, 72 h, run 0529-10 min, read-out: survival rate (inhibition effect)
  viability at 10 µM: 14.6%
[3]; 786-0, 786-O, 72 h, run 0531-10 min, read-out: survival rate (inhibition effect)
  viability at 10 µM: 22.3%
[3]; 786-0, 72 h, 786-O, average of 4 tests, read-out: survival rate (inhibition effect), Average
  viability at 10 µM: 24%
[3]; 786-0, 72 h, summary, renal cancer, read-out: Inhibitory effect
  viability at 10 µM: 72.5%
[4]; PC-3, 72 h, PC-3, average of 4 tests, read-out: survival rate (inhibition effect), Average
  viability at 10 µM: 44.1%
[4]; PC-3, PC-3, 72 h, run PC-3-0524-10 min, read-out: survival rate (inhibition effect)
  viability at 10 µM: 33.5%
[4]; PC-3, PC-3, 72 h, run PC-3-0526-10 min, read-out: survival rate (inhibition effect)
  viability at 10 µM: 61.6%
[4]; PC-3, PC-3, 72 h, run PC-3-0529-10 min, read-out: survival rate (inhibition effect)
  viability at 10 µM: 39.3%
[4]; PC-3, PC-3, 72 h, run PC-3-0531-10 min, read-out: survival rate (inhibition effect)
  viability at 10 µM: 41.8%
[5]; MCF7, 72 h, MCF7, average of 4 tests, read-out: survival rate (inhibition effect), Average
  viability at 10 µM: 51.2%
[5]; MCF7, MCF7, 72 h, run 0612-10 min, read-out: survival rate (inhibition effect)
  viability at 10 µM: 47.7%
[5]; MCF7, MCF7, 72 h, run 0614-10 min, read-out: survival rate (inhibition effect)
  viability at 10 µM: 50%
[5]; MCF7, MCF7, 72 h, run 0616-10 min, read-out: survival rate (inhibition effect)
  viability at 10 µM: 55.4%
[5]; MCF7, MCF7, 72 h, run 0619-10 min, read-out: survival rate (inhibition effect)
  viability at 10 µM: 51.6%
[6]; MDA-MB-231, 72 h, MDA-MB-231, average of 4 tests, read-out: survival rate (inhibition effect), Average
  viability at 10 µM: 41.8%
[6]; MDA-MB-231, MDA-MB-231, 72 h, run 0612-10 min, read-out: survival rate (inhibition effect)
  viability at 10 µM: 47.9%
[6]; MDA-MB-231, MDA-MB-231, 72 h, run 0614-10 min, read-out: survival rate (inhibition effect)
  viability at 10 µM: 35.9%
[6]; MDA-MB-231, MDA-MB-231, 72 h, run 0616-10 min, read-out: survival rate (inhibition effect)
  viability at 10 µM: 42%
[6]; MDA-MB-231, MDA-MB-231, 72 h, run 0619-10 min, read-out: survival rate (inhibition effect)
  viability at 10 µM: 41.2%
[7]; OVCAR-3, 72 h, NIH-OVCAR-3, average of 4 tests, read-out: survival rate (inhibition effect), Average
  viability at 10 µM: 86%
[7]; OVCAR-3, NIH-OVCAR-3, 72 h, run 7-3-30 min, read-out: survival rate (inhibition effect)
  viability at 10 µM: 80.2%
[7]; OVCAR-3, NIH-OVCAR-3, 72 h, run 7-4-30 min (fourth column), read-out: survival rate (inhibition effect)
  viability at 10 µM: 97.8%
[7]; OVCAR-3, NIH-OVCAR-3, 72 h, run 7-4-30 min (second column), read-out: survival rate (inhibition effect)
  viability at 10 µM: 81.9%
[7]; OVCAR-3, NIH-OVCAR-3, 72 h, run 7-7-30 min, read-out: survival rate (inhibition effect)
  viability at 10 µM: 83.9%
[8]; HepG2, 72 h, HepG2, average of 4 tests, read-out: survival rate (inhibition effect), Average
  viability at 10 µM: 54.1%
[8]; HepG2, HepG2, 72 h, run 0524-20 min, read-out: survival rate (inhibition effect)
  viability at 10 µM: 66.4%
[8]; HepG2, HepG2, 72 h, run 0526-20 min, read-out: survival rate (inhibition effect)
  viability at 10 µM: 58.3%
[8]; HepG2, HepG2, 72 h, run 0529-20 min, read-out: survival rate (inhibition effect)
  viability at 10 µM: 50.1%
[8]; HepG2, HepG2, 72 h, run 0531-20 min, read-out: survival rate (inhibition effect)
  viability at 10 µM: 41.7%
[9]; [21]
  viability at 10 µM: 66.1%
[9]; run 0612-20 min, read-out: survival rate (inhibition effect)
  viability at 10 µM: 69.8%
[9]; run 0614-20 min, read-out: survival rate (inhibition effect)
  viability at 10 µM: 67.4%
[9]; run 0616-20 min, read-out: survival rate (inhibition effect)
  viability at 10 µM: 66.2%
[9]; run 0619-20 min, read-out: survival rate (inhibition effect)
  viability at 10 µM: 60.9%
[10]; [21]
  viability at 10 µM: 58%
[10]; run 0616-10 min, read-out: survival rate (inhibition effect)
  viability at 10 µM: 54.1%
[10]; run 0619-10 min, read-out: survival rate (inhibition effect)
  viability at 10 µM: 51.5%
[10]; run 0621-10 min, read-out: survival rate (inhibition effect)
  viability at 10 µM: 77.3%
[10]; run 0623-10 min, read-out: survival rate (inhibition effect)
  viability at 10 µM: 48.9%
[11]; SAS, average of 4 tests, read-out: survival rate (inhibition effect), Average
  viability at 10 µM: 51.5%
[11]; summary, tongue cancer, read-out: Inhibitory effect
  viability at 10 µM: 51.5%
[11]; SAS, run 6-26-10 min, read-out: survival rate (inhibition effect)
  viability at 10 µM: 48.2%
[11]; SAS, run 6-28-10 min, read-out: survival rate (inhibition effect)
  viability at 10 µM: 26.7%
[11]; SAS, run 6-30-10 min, read-out: survival rate (inhibition effect)
  viability at 10 µM: 58%
[11]; SAS, run 7-3-10 min, read-out: survival rate (inhibition effect)
  viability at 10 µM: 73.1%
[12]; [21]
  viability at 10 µM: 33.2%
[12]; run 6-26-10 min, read-out: survival rate (inhibition effect)
  viability at 10 µM: 40.6%
[12]; run 6-28-10 min, read-out: survival rate (inhibition effect)
  viability at 10 µM: 30.8%
[12]; run 6-30-10 min, read-out: survival rate (inhibition effect)
  viability at 10 µM: 30.3%
[12]; run 7-3-10 min, read-out: survival rate (inhibition effect)
  viability at 10 µM: 31.1%
[12]; summary, osteosarcoma, read-out: Inhibitory effect
  viability at 10 µM: 33.2%
[13]
  viability at 10 µM: 69.1%
[14]
  viability at 10 µM: 63.8%
[15]
  viability at 10 µM: 44.1%
[16]
  viability at 10 µM: 46.5%
[17]
  viability at 10 µM: 86.5%
[18]
  viability at 10 µM: 43.2%
[19]
  viability at 10 µM: 51%
[20]
  toxicity to normal cells: no toxicity or had little toxicity
